This is an account of results in patent US12122816B2, “Long acting peptide tyrosine tyrosine (PYY) analogs and methods of use” (Intarcia Therapeutics, Inc., priority 2020, dated 2024).

As usually defined, the EC50 is the concentration giving half of the maximal effect.

The nature of data set [1]: Stability in water or saline (1 mg/ml) at 37° C., purity by LC/MS and HPLC. Format: physicochemical. The note with it: TFA salt form.
Data set [2] deals with T1, human Y1 receptor (Homo sapiens, UniProt P25929).
T1 sequence (P25929 1-384): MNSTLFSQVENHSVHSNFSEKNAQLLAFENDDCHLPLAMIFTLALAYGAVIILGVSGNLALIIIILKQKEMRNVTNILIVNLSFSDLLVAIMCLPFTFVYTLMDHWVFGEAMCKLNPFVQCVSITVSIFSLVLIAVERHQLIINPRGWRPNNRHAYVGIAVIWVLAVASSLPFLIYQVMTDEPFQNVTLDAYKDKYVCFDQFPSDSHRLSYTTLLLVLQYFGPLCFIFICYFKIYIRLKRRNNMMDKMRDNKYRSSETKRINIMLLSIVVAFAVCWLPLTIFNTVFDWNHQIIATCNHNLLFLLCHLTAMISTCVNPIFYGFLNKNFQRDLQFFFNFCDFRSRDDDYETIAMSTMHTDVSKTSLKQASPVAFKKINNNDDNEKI
Nature of the data set: NPY receptor functional assay (cAMP, HEK-CNG cells, ACTOne membrane potential dye). Format: cell-based. The text has this: The NPY family of G-protein coupled receptors include Y1, Y2, Y4, and Y5 in humans and rats. […] Following agonist binding, the receptor-G protein complex activates a downstream intracellular signaling cascade which leads to inhibition of adenylate cyclase and a reduction in intracellular cAMP levels.
HEK-CNG cells stably expressing the human or rat Y1, Y2, Y4 or Y5 receptors (Codex Biosolutions) were used to characterize the functional potency of peptide agonists using the ActOne™ membrane potential dye kit (Codex Biosolutions). In addition to each NPY receptor, each cell line encodes a proprietary exogenous Cyclic Nucleotide-Gated (CNG) channel (Codex Biosolutions). The channel is activated by elevated intracellular levels of cAMP, resulting in ion flux and cell membrane depolarization which can be detected with a calcium sensitive dye or fluorescent membrane potential (MP) dye. Cells were carried in growth media containing 90% DMEM, 10% FBS, 250 mcg/mL G418 and 1 mcg/mL puromycin for no more than 15 passages.
Prior to testing, cells were counted and dispensed at 14,000 cells per well (Y1, Y4 and Y5) or 28,000 cells per well (Y2) into black 384 well Poly-D-Lysine plates at 20 mcL per well. Covered plates were then incubated at room temperature for 30 minutes followed by an overnight incubation at 37° C. in 5% C02. The following day, media was removed and wells were washed once with 40 mcL Dulbecco's phosphate buffered saline. […] Ten microliters of experimental peptide or peptide standard was added in triplicate to wells and incubated for 50 minutes at room temperature in the dark. Following this incubation step, plates were read again as before (final read).
NPY receptor activation, leading to a reduction in intracellular cAMP levels, is detected as a decrease in isoproteranol induced fluorescent signal. Peptide standard and experimental values were initially transformed in excel using the formula: final read/initial read. […] Normalized data was analyzed from triplicate tests and used to estimate the EC50 for each test peptide on each receptor. Data was fit in GraphPad Prism software (v8.2.1) using a 3-parameter logistic curve model: Y=Bottom+(Top−Bottom)/(1+10^((LogEC50−X))). EC50 values were converted to pEC50 values using the formula: pEC50=−Log(EC50).

Data set [3] is described as follows: In vitro metabolic stability in kidney brush border membranes (kBBM). Format: in vitro ADME. The note with it: 1 mcM peptide, 37° C.

Structures are written as SMILES. Like-named read-outs stand apart in the source and are kept apart here.

On to `CC(C)C[C@H](NC(=O)[C@H](Cc1ccc(O)cc1)NC(=O)[C@H](Cc1c[nH]cn1)NC(=O)[C@H](CCCNC(=N)N)NC(=O)[C@H](CC(C)C)NC(=O)[C@H](CC(=O)O)NC(=O)[C@@H](CCCCNC(=O)CC[C@H](NC(=O)CC[C@H](NC(=O)CCCCCCCCCCCCCCCCCCC(=O)O)C(=O)O)C(=O)O)NC(=O)[C@H](Cc1ccc(O)cc1)NC(=O)[C@H](Cc1ccc(O)cc1)NC(=O)[C@H](CCCNC(=N)N)NC(=O)[C@H](CC(N)=O)NC(=O)[C@H](Cc1c[nH]c2ccccc12)NC(=O)[C@H](CCC(=O)O)NC(=O)[C@H](CCC(=O)O)NC(=O)[C@@H]1CCCN1C(=O)[C@H](CO)NC(=O)[C@H](C)NC(=O)[C@H](CC(=O)O)NC(=O)[C@H](CCCCN)NC(=O)CNC(=O)[C@@H]1CCCN1C(=O)[C@H](C)NC(=O)[C@H](CCC(=O)O)NC(=O)[C@@H]1CCCN1C(=O)[C@H](CCCCN)NC(=O)[C@@H]1CCCN1)C(=O)N[C@@H](CC(N)=O)C(=O)N[C@@H](Cc1c[nH]c2ccccc12)C(=O)N[C@@H](CC(C)C)C(=O)N[C@H](C(=O)N[C@@H](CCCNC(=N)N)C(=O)N[C@@H](CCC(N)=O)C(=O)N[C@@H](CCCNC(=N)N)C(=O)N[C@@H](Cc1ccccc1)C(N)=O)[C@@H](C)O` [Compound A14], for which, in data set [1], the “Stability (37° C./RT, T0: Mar. 25, 2020)” value is 94.2. In data set [2], this compound showed an EC50 of 3.16 nM. Further, the half-life at 1 mcM is over 12 h in data set [3] (pH 7.4, human kBBM 50 mcg protein/mL, read-out: hkBBM t½ (converted)) and over 12 h in data set [3] (pH 7.4, rat kBBM 50 mcg protein/mL, read-out: rkBBM t½).
